This is an account of results in patent US20210198277A1, “AMINE-SUBSTITUTED ARYL OR HETEROARYL COMPOUNDS” (Epizyme, Inc., priority 2016, published 2021).

Where two headings read alike, the source gives them in different places.

This test deals with T1, human EHMT2 913-1193 (Homo sapiens, UniProt Q96KQ7).
T1 construct: recombinant purified human EHMT2 913-1193, Viva; purchased Viva
T1 sequence (Q96KQ7 913-1193): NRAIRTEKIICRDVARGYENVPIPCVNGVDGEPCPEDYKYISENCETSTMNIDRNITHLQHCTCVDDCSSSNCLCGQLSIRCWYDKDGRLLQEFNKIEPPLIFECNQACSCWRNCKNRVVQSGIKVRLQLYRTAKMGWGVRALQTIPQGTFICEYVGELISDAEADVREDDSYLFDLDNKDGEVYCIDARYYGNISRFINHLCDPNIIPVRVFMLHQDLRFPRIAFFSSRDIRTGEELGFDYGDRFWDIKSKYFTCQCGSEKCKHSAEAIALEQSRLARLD
The test is described as follows: EHMT2 enzyme assay on histone peptide substrate (EHMT2 PEP). Format: biochemical. The method, boiled down: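 Inhibition is measured as reduced tritium incorporation into a biotinylated histone peptide from ^3H-SAM. The enzyme (0.031 nM) sees compound for 30 minutes before a 60-minute room-temperature reaction, which unlabeled SAM quenches prior to streptavidin Flashplate capture.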

The mark [1] stands for this setting: Table III, read-out: EHMT2 PEP (IC50 μM).
The mark [2] stands for this setting: Table VI, read-out: EHMT2 PEP IC50.

`COc1cnc(Nc2ccnc3[nH]ccc23)cc1OCCCN1CCCC1` [Compound 335, N-(5-methoxy-4-(3-(pyrrolidin-1-yl)propoxy)pyridine-2-yl)-1H-pyrrolo[2,3-b]pyridin-4-amine]: the IC50 (usually the concentration that gives 50% inhibition) under setting [1] is 0.1 to 1 µM.

Turning to `COc1cnc(Nc2cc(C)nc3[nH]ccc23)cc1OCCCN1CCCC1` [Compound 336, N-(5-methoxy-4-(3-(pyrrolidin-1-yl)propoxy)pyridin-2-yl)-6-methyl-1H-pyrrolo[2,3-b]pyridin-4-amine], the IC50 under setting [1] is 0.1 to 1 µM.

As for `COc1ccc(Nc2nc(C)c(F)c(NC(C)C)n2)cc1OCCCN1CCCC1` [Compound 337], under setting [1], the IC50 was 1 to 10 µM.

On to `COc1ccc(Nc2nccc(-n3nc(C)cc3C)n2)cc1OCCCN1CCCC1` [Compound 338], for which the half-maximal inhibitory concentration (IC50) under setting [1] was over 10 µM.

As for `CNCc1cnc(Nc2ccc(OC)c(OCCCN3CCCC3)c2)nc1` [Compound 339], the IC50 under setting [1] is over 10 µM.

In the case of `COc1ccc(Nc2ccnc(NCC3CCN(C(C)=O)CC3)n2)cc1OCCCN1CCCC1` [Compound 340], the IC50 under setting [1] lay within 0.1 to 1 µM.

`COc1ccc(Nc2ccc3cnn(C)c3c2)cc1OCCCN1CCCC1` [Compound 341]: the IC50 under setting [1] was over 10 µM.

Consider `COc1ccc(Nc2ccc3ncn(C)c3n2)cc1OCCCN1CCCC1` [Compound 342], for which, under setting [1], the IC50 is over 10 µM.

For the molecule `COc1ccc(Nc2ncc3ncn(C)c3n2)cc1OCCCN1CCCC1` [Compound 343], the IC50 under setting [1] is over 10 µM.

Turning to `COc1ccc(Nc2cccc3ncnn23)cc1OCCCN1CCCC1` [Compound 344], under setting [1], the IC50 was over 10 µM.

Take `COc1ccc(Nc2ccc3nn(C)cc3c2)cc1OCCCN1CCCC1` [Compound 345]: the IC50 under setting [1] is over 10 µM.

Consider `COc1ccc(Nc2cccc3cn(C)nc23)cc1OCCCN1CCCC1` [Compound 346], for which the IC50 under setting [1] was over 10 µM.

Regarding `COc1ccc(Nc2ccc3ncc(C)n3n2)cc1OCCCN1CCCC1` [Compound 347], the IC50 under setting [1] was in the range of 1 to 10 µM.

With `COc1ccc(Nc2nccc(-c3cnn(C)c3)n2)cc1OCCCN1CCCC1` [Compound 348], the IC50 under setting [1] is over 10 µM.

On to `COc1ccc(Nc2nccc(Nc3cccc(F)c3)n2)cc1OCCCN1CCCC1` [Compound 349], for which the IC50 under setting [1] was 1 to 10 µM.

`COc1ccc(Nc2nccc(NCC3CCOCC3)n2)cc1NCCCN1CCCC1` [Compound 350]: under setting [1], the half-maximal inhibitory concentration (IC50) lay in the range of 0.1 to 1 µM.

For the molecule `COc1ccc(OCCCN2CCCC2)cc1Nc1nccc(NCC2CCOCC2)n1` [Compound 351], the IC50 under setting [1] is over 10 µM.

Consider `COc1ccc(NCCCN2CCCC2)cc1Nc1nccc(NCC2CCOCC2)n1` [Compound 352], for which the IC50 under setting [1] is over 10 µM.

Turning to `CNc1ccnc(Nc2ccc(OC)c(OCCCN3CC[C@@H](F)C3)c2)n1` [Compound 353], under setting [1], the IC50 was in the range of 0.1 to 1 µM.

Consider `CNc1ccnc(Nc2ccc(OC)c(OCCCN3CC(F)C3)c2)n1` [Compound 354], for which the IC50 under setting [1] lay in the range of 1 to 10 µM.

Turning to `CNc1cc2nccn2c(Nc2cc(OCCCN3CCCC3)c(OC)cn2)n1` [Compound 611], the concentration for half-maximal inhibition (IC50) under setting [2] is 1 to 10 µM.

In the case of `CCN1CC(COc2cc(Nc3nc(C)cc4[nH]ccc34)ncc2OC)C1` [Compound 613], the half-maximal inhibitory concentration (IC50) under setting [2] is 0.1 to 1 µM.

As to `CNc1cc(C)nc(Nc2cc(OCCCN3CCCC3)c3nc(C)cn3c2)n1` [Compound 616], the IC50 under setting [2] fell in the range of 1 to 10 µM.

With `CNc1cc(C)nc(Nc2cc(OCCCN3CCCC3)c3nccn3c2)n1` [Compound 618], the concentration for half-maximal inhibition (IC50) under setting [2] lay within 1 to 10 µM.

For the molecule `COc1cc2c(C3CCN(C)CC3)cc(C#N)nc2cc1OCCCN1CCCC1` [Compound 790], the IC50 under setting [2] was in the range of 0.1 to 1 µM.

As for `CNc1cc(C)nc(Nc2cc(OCCCN3CCCC3)c3oncc3c2)n1` [Compound 793], the IC50 under setting [2] was over 10 µM.

Consider `COc1ccc(Nc2nn(C)c3cnccc23)cc1OCCCN1CCCC1` [Compound 794], for which the IC50 under setting [2] was over 10 µM.

For `COc1cnc(Nc2nn(C)c3cnccc23)cc1OCCCN1CCCC1` [Compound 795], under setting [2], the IC50 was over 10 µM.

With `COc1ccc(Nc2cc(C)[nH]n2)cc1OCCCN1CCCC1` [Compound 796], the IC50 under setting [2] is over 10 µM.

For the molecule `COc1ccc(Nc2cc(C)n(C)n2)cc1OCCCN1CCCC1` [Compound 797], the half-maximal inhibitory concentration (IC50) under setting [2] was over 10 µM.

`CNc1cc(C)nc(Nc2cnc(OC)c(OC[C@@H]3CCN(C4CCC4)C3)c2)n1` [Compound 798]: the IC50 under setting [2] lay within 0.1 to 1 µM.

Consider `COc1ccc(Nc2nc(C)cc(NC(C)C)n2)cc1OC[C@@H]1CCNC1` [Compound 800], for which the IC50 under setting [2] was under 0.1 µM.

Consider `COc1cnc(Nc2nccc3nccn23)cc1OC[C@@H]1CCNC1` [Compound 801], for which, under setting [2], the half-maximal inhibitory concentration (IC50) is over 10 µM.

Turning to `CNc1cc(C2CCOCC2)c2cc(OC)c(OC[C@@H]3CCNC3)cc2n1` [Compound 802], the IC50 under setting [2] is under 0.1 µM.

For the molecule `CNc1cc(C2CCOCC2)c2cc(OC)c(OC[C@@H]3CCN(C)C3)cc2n1` [Compound 803], the concentration for half-maximal inhibition (IC50) under setting [2] lay in the range of 0.1 to 1 µM.

For the molecule `COc1cc(NC2CCOCC2)ncc1OCC1CCNC1` (centres unmarked) [Compound 806], the IC50 under setting [2] was in the range of 1 to 10 µM.

For `COc1cc(N(C)C2CCOCC2)ncc1OCC1CCNC1` (centres unmarked) [Compound 808], the IC50 under setting [2] was over 10 µM.

`CNc1cc(C2CCN(C(C)=O)CC2)c2cc(OC)c(OCCCN3CCCC3)cc2n1` [Compound 809]: under setting [2], the IC50 was under 0.1 µM.

With `COc1cc2c(C)cc(N3CCCCC3)nc2cc1OCCCN1CCCC1` [Compound 810], the concentration for half-maximal inhibition (IC50) under setting [2] is 0.1 to 1 µM.

Consider `COc1cc2c(C)nc(N3CCCCC3)nc2cc1OCCCN1CCCC1` [Compound 811], for which the IC50 under setting [2] was over 10 µM.

Regarding `COc1cc2c(C3CCN(C)CC3)cc(N3CCCCC3)nc2cc1OCCCN1CCCC1` [Compound 812], the half-inhibitory concentration (IC50) under setting [2] was under 0.1 µM.

Regarding `CNc1cc(C)nc(Nc2ccc(OC)c(CN[C@H]3CCNC3)c2)n1` [Compound 813], the IC50 under setting [2] was in the range of 1 to 10 µM.

As for `CNc1cc(C)nc(Nc2ccc(OC)c(CN[C@@H]3CCNC3)c2)c1` [Compound 814], the IC50 under setting [2] was in the range of 1 to 10 µM.

Consider `CNc1cc(C2CCCCC2)c2cc(OC)c(OCCCN3CCCC3)cc2n1` [Compound 816], for which the IC50 under setting [2] is under 0.1 µM.

For `CNc1cc(C(C)C)c2cc(OC)c(OCCCN3CCCC3)cc2n1` [Compound 817], under setting [2], the IC50 was under 0.1 µM.

Turning to `COc1cc2c(C3CCOCC3)cc(=O)[nH]c2cc1OCCCN1CCCC1` [Compound 822], the IC50 under setting [2] was over 10 µM.

Consider `CNc1cc(CC2CCOCC2)c2cc(OC)c(OCCCN3CCCC3)cc2n1` [Compound 823], for which the IC50 under setting [2] is under 0.1 µM.

For the molecule `COc1cc2c(C3CCOCC3)cc(N3CCCCC3)nc2cc1OCCCN1CCCC1` [Compound 824], the IC50 under setting [2] was 0.1 to 1 µM.

`COc1cc2c(C3CCOCC3)cc(N(C)C)nc2cc1OCCCN1CCCC1` [Compound 825]: the IC50 under setting [2] was in the range of 0.1 to 1 µM.

On to `CNc1cc(C2CCN(CCC(F)(F)F)CC2)c2cc(OC)c(OCCCN3CCCC3)cc2n1` [Compound 832], for which the IC50 under setting [2] is under 0.1 µM.

For `CNc1cc(C2CCN(CC(F)(F)F)CC2)c2cc(OC)c(OCCCN3CCCC3)cc2n1` [Compound 833], the IC50 under setting [2] is under 0.1 µM.

Turning to `COc1cc2c(C3CCN(C(C)=O)CC3)cc(C)nc2cc1OCCCN1CCCC1` [Compound 834], the half-inhibitory concentration (IC50) under setting [2] fell in the range of 0.1 to 1 µM.

Consider `CCS(=O)(=O)N1CCC(c2cc(C)nc3cc(OCCCN4CCCC4)c(OC)cc23)CC1` [Compound 836], for which the IC50 under setting [2] is 0.1 to 1 µM.

Take `COc1cc2c(C3CCN(CC(F)(F)F)CC3)cc(C)nc2cc1OCCCN1CCCC1` [Compound 837]: the IC50 under setting [2] was 0.1 to 1 µM.

For the molecule `COc1cc2c(C3CCN(CCC(F)(F)F)CC3)cc(C)nc2cc1OCCCN1CCCC1` [Compound 838], under setting [2], the IC50 was under 0.1 µM.

Regarding `CNc1cc(C2CCN(CCOC)CC2)c2cc(OC)c(OCCCN3CCCC3)cc2n1` [Compound 839], the IC50 under setting [2] was under 0.1 µM.

As for `COc1cc2c(C3CCN(CC(F)(F)F)CC3)nc(C)nc2cc1OCCCN1CCCC1` [Compound 841], the IC50 under setting [2] is over 10 µM.

As for `CNc1cc(C)nc(Nc2ccc(OC)c(C#CC3CCNC3)c2)n1` (centres unmarked) [Compound 845], the IC50 under setting [2] was in the range of 0.1 to 1 µM.

Take `CNc1cc(C)nc(Nc2ccc(OC)c(C#CC3CCCN3)c2)n1` (centres unmarked) [Compound 846]: the half-maximal inhibitory concentration (IC50) under setting [2] was under 0.1 µM.

With `CNc1cc(C)nc(Nc2ccc(OC)c(C#CC3CCN(C)C3)c2)n1` (centres unmarked) [Compound 847], the half-maximal inhibitory concentration (IC50) under setting [2] is 0.1 to 1 µM.

As for `CNc1cc(C)nc(Nc2ccc(OC)c(C#CC3CCCN3C)c2)n1` (centres unmarked) [Compound 848], under setting [2], the IC50 is under 0.1 µM.

For `CNC(=O)c1cc(C)nc(Nc2ccc(OC)c(OCCCN3CCCC3)c2)n1` [Compound 854], the IC50 under setting [2] is over 10 µM.

Turning to `CNc1cc(C)c2cc(OC)c(C#CCN3CCCC3)cc2n1` [Compound 859], the IC50 under setting [2] was under 0.1 µM.

Take `CNc1cc(C)nc(Nc2ccc(OC)c(C#CCN3CCN(C)CC3)c2)n1` [Compound 860]: the half-maximal inhibitory concentration (IC50) under setting [2] was over 10 µM.

Take `COc1cc2c(C3CCN([C@@H]4CCOC4)CC3)cc(C)nc2cc1OCCCN1CCCC1` [Compound 863]: under setting [2], the IC50 was under 0.1 µM.
